These results are taken from patent US8426426B2, “Gyrase inhibitors and uses thereof” (Vertex Pharmaceuticals Incorporated, priority 2002, dated 2013).

In brackets after ≈: the same amount, converted by molar mass.

The test system of assay [1] is S. aureus. As to the kind of experiment: Susceptibility testing in liquid media (MIC assay) against S. aureus. The class given is cell-based. As to conditions: 35° C. overnight (16 to 20 hours); for MIC: Staphylococcus aureus. The method, then: (§1) Compounds of this invention were tested for antimicrobial activity by susceptibility testing in liquid media. Such assays were performed within the guidelines of the latest NCCLS document governing such practices: “M7-A5 Methods for dilution Antimicrobial Susceptibility Tests for Bacteria that Grow Aerobically; Approved Standard—Fifth Edition (2000)”. Other publications such as “Antibiotics in Laboratory Medicine” (Edited by V. Lorian, Publishers Williams and Wilkins, 1996) provide essential practical techniques in laboratory antibiotic testing.
(§2) Several discrete bacterial colonies (3 to 7) from a freshly streaked plate were transferred to an appropriate rich broth medium such as MHB, supplemented where appropriate for the more fastidious organisms. This was grown overnight to high density followed by a 1 or 2-thousand-fold dilution to give an inoculation density of between 5×10^5 and 5×10^6 CFU per mL. Alternatively, the freshly picked colonies can be incubated at 37° C. for about 4 to 8 hours until the culture equals or exceeds a turbidity of a 0.5 McFarland standard (approximately 1.5×10^8 cells per mL) and diluted to give the same CFU per mL as above. In a more convenient method, the inoculum was prepared using a commercially available mechanical device (the BBL PROMPT System) that involves touching five colonies directly with a wand, containing crosshatch grooves at its bottom, followed by suspension of the bacteria in an appropriate volume of saline. Dilution to the appropriate inoculum cell density was made from this cell suspension. The broth used for testing consists of MHB supplemented with 50 mg per L of Ca^2+ and 25 mg per L of Mg^2+. Standard dilution panels of control antibiotics were made and stored as in the NCCLS standard M7-A5, the dilution range typically being in the 128 μg per mL to 0.015 μg per mL (by 2-fold serial dilution). The test compounds were dissolved and diluted fresh for experimentation on the same day; the same or similar ranges of concentration as above being used. The test compounds and controls were dispensed into a multiwell plate and test bacteria added such that the final inoculation was approximately 5×10^4 CFU per well and the final volume was 100 μL. The plates were incubated at 35° C. overnight (16 to 20 hours) and checked by eye for turbidity or quantitated with a multiwell plate reader. […] Such determinations were also compared to the appropriate tables contained in the above two publications to ensure that the range of antibacterial activity is within the acceptable range for this standardized assay.
(§3) The compound numbers correspond to the compound numbers in Table 1.

Assay [2] concerns S. pneumoniae. Nature of the assay: Susceptibility testing in liquid media (MIC assay) against S. pneumoniae. As to conditions: Streptococcus pneumoniae, 35° C. overnight (16 to 20 hours). Format: cell-based. How it is done:
as §1, §2, §3

For the molecule “1-(7-Cyclohexanecarbonyl-5-pyridin-3-yl-1H-benzoimidazol-2-yl)-3-ethyl-urea [Compound I-14]”, the “MIC (Activity) against S. aureus” value in assay [1] is on record as “C (an MIC of greater than 1.0 μg/mL)”. Usually MIC stands for the lowest concentration that inhibits growth of the organism. As to `CCNC(=O)Nc1nc2cc(-c3cccnc3)cc(C(=O)OC)c2[nH]1` [Compound I-1, 2-(3-Ethyl-ureido)-6-pyridin-3-yl-3H-benzoimidazole-4-carboxylic acid methyl ester], the MIC in assay [1] and in assay [2] was no more than 0.5 µg/mL in each case. In assay [1], `CCNC(=O)Nc1nc2cc(-c3cccnc3)c(F)c(C(=O)OC)c2[nH]1` [Compound I-3] returned an MIC of no more than 0.5 µg/mL.

On to `CCNC(=O)Nc1nc2cc(-c3cccnc3)cc(C(=O)CN(C)C)c2[nH]1` [Compound I-4], for which, in assay [2], the minimum inhibitory concentration (MIC) is greater than 1 µg/mL. On to `CCNC(=O)Nc1nc2cc(-c3cncnc3)cc(C(=O)OC)c2[nH]1` [Compound I-5], for which the MIC in assay [1] and in assay [2] was no more than 0.5 µg/mL in each case.

`CCNC(=O)Nc1nc2cc(-c3cccnc3)c(F)c(C(=O)NC)c2[nH]1` [Compound I-6] came in with an MIC in assay [1] of 0.5 to 1 µg/mL (≈ 1.4 to 2.81 µM).

In assay [1], `CCNC(=O)Nc1nc2cc(-c3cncnc3)cc(C(=O)NC)c2[nH]1` [Compound I-7] gave a minimum inhibitory concentration (MIC) greater than 1 µg/mL.

Turning to `CCNC(=O)Nc1nc2cc(-c3cccnc3)cc(C(=O)C3CCCCC3)c2[nH]1` [Compound I-11], the MIC in assay [1] and in assay [2] was no more than 0.5 µg/mL in each case. In assay [1], `CCNC(=O)Nc1nc2cc(-c3cccnc3)cc(C(=O)NCCO)c2[nH]1` [Compound I-13] had an MIC greater than 1 µg/mL.

As to `CCNC(=O)Nc1nc2cc(-c3cccnc3)cc(C(=O)Nc3cc(C)[nH]n3)c2[nH]1` [Compound I-15], the MIC in assay [1] is greater than 1 µg/mL. Molecule `CCNC(=O)Nc1nc2cc(-c3cccnc3)cc(C(=O)NC)c2[nH]1` [Compound I-16] came in with an MIC in assay [1] greater than 1 µg/mL. Regarding `CCNC(=O)Nc1nc2cc(-c3cccnc3)cc(C(=O)NCc3ccccc3)c2[nH]1` [Compound I-17], the MIC was 0.5 to 1 µg/mL (≈ 1.21 to 2.41 µM) in assay [1] and no more than 0.5 µg/mL in assay [2]. The matching figures for `CCNC(=O)Nc1nc2cc(-c3cccnc3)cc(C(C)=O)c2[nH]1` [Compound I-18]: no more than 0.5 µg/mL and no more than 0.5 µg/mL.

With `CCNC(=O)Nc1nc2cc(-c3cccnc3)cc(C(=O)CC)c2[nH]1` [Compound I-19], the MIC in assay [1] and in assay [2] was no more than 0.5 µg/mL throughout. For the molecule `CCCC(=O)c1cc(-c2cccnc2)cc2nc(NC(=O)NCC)[nH]c12` [Compound I-20], the MIC in assay [1] and in assay [2] was no more than 0.5 µg/mL each time. Consider `CCNC(=O)Nc1nc2cc(-c3cccnc3)cc(C(=O)C(C)CC)c2[nH]1` (centres unmarked) [Compound I-21], for which the MIC in assay [1] and in assay [2] was no more than 0.5 µg/mL throughout. As for `CCNC(=O)Nc1nc2cc(-c3cccnc3)cc(C(=O)C(C)C)c2[nH]1` [Compound I-22], the MIC in assay [1] and in assay [2] was no more than 0.5 µg/mL each time.

Regarding `CCNC(=O)Nc1nc2cc(-c3cncnc3)cc(C(=O)CC)c2[nH]1` [Compound I-23], the MIC in assay [1] and in assay [2] was no more than 0.5 µg/mL each time. For the molecule `CCNC(=O)Nc1nc2cc(-c3cccnc3)cc(C(=O)CC(C)C)c2[nH]1` [Compound I-24], the MIC in assay [1] and in assay [2] was no more than 0.5 µg/mL each time.

Take `CCNC(=O)Nc1nc2cc(-c3cccnc3)cc(C(=O)C3CC3)c2[nH]1` [Compound I-25]: the MIC in assay [1] and in assay [2] was no more than 0.5 µg/mL throughout. With `CCNC(=O)Nc1nc2cc(-c3cccnc3)cc(C(=O)c3nccn3C)c2[nH]1` [Compound I-26], the MIC in assay [1] and in assay [2] was no more than 0.5 µg/mL in each case. Turning to `CCNC(=O)Nc1nc2cc(-c3cccnc3)cc(C(=O)C3CCCC3)c2[nH]1` [Compound I-28], the MIC in assay [1] and in assay [2] was no more than 0.5 µg/mL each time. For the molecule `CCNC(=O)Nc1nc2cc(-c3cccnc3)cc(C(=O)c3nccn3CC)c2[nH]1` [Compound I-29], the MIC in assay [1] and in assay [2] was no more than 0.5 µg/mL in each case. For `CCNC(=O)Nc1nc2cc(-c3cccnc3)cc(C(=O)c3cn(C)cn3)c2[nH]1` [Compound I-30], the MIC in assay [1] was greater than 1 µg/mL; in assay [2], no more than 0.5 µg/mL. The matching figures for `CCNC(=O)Nc1nc2cc(-c3cccnc3)cc(C(=O)CCc3ccccn3)c2[nH]1` [Compound I-31]: no more than 0.5 µg/mL and no more than 0.5 µg/mL. As for `CCNC(=O)Nc1nc2cc(-c3cc(C)n(Cc4ccccn4)c(=O)c3)cc(C(=O)OC)c2[nH]1` [Compound I-32], the MIC in assay [1] and in assay [2] was no more than 0.5 µg/mL each time. Consider `CCNC(=O)Nc1nc2cc(-c3cccnc3)cc(C(=O)OC(C)C)c2[nH]1` [Compound I-33], for which the MIC in assay [1] and in assay [2] was no more than 0.5 µg/mL each time. For the molecule `CCNC(=O)Nc1nc2cc(-c3cccnc3)cc(C(=O)OCC)c2[nH]1` [Compound I-34], the MIC in assay [1] and in assay [2] was no more than 0.5 µg/mL in each case. Take `CCNC(=O)Nc1nc2cc(-c3ccn(C)c(=O)c3)c(F)c(C(=O)OC)c2[nH]1` [Compound I-35]: the MIC in assay [1] and in assay [2] was no more than 0.5 µg/mL throughout. As for `CCNC(=O)Nc1nc2cc(-c3ccn(C)c(=O)c3)c(F)c(C(=O)NC)c2[nH]1` [Compound I-36], the MIC is greater than 1 µg/mL in assay [1] and no more than 0.5 µg/mL in assay [2]. The matching figures for `CCNC(=O)Nc1nc2cc(-c3cccnc3)cc(C(=O)CCCCO)c2[nH]1` [Compound I-37]: 0.5 to 1 µg/mL (≈ 1.31 to 2.62 µM) and no more than 0.5 µg/mL.

Turning to `CCNC(=O)Nc1nc2cc(-c3cccnc3)cc(/C(CC)=N/OC)c2[nH]1` [Compound I-38], the MIC in assay [1] and in assay [2] was no more than 0.5 µg/mL throughout. For the molecule `CCC/C(=N\OC)c1cc(-c2cccnc2)cc2nc(NC(=O)NCC)[nH]c12` [Compound I-39], the MIC in assay [1] and in assay [2] was no more than 0.5 µg/mL throughout. Regarding `CCNC(=O)Nc1nc2cc(-c3cccnc3)cc(/C(=N/OC)C3CC3)c2[nH]1` [Compound I-40, 1-[4-(Cyclopropyl-methoxyimino-methyl)-6-pyridin-3-yl-1H-benzoimidazol-2-yl]-3-ethyl-urea], the MIC in assay [1] and in assay [2] was no more than 0.5 µg/mL throughout. Take `CCNC(=O)Nc1nc2cc(-c3cccnc3)cc(/C(=N/OCC)C3CC3)c2[nH]1` [Compound I-41]: the MIC in assay [1] and in assay [2] was no more than 0.5 µg/mL each time. As for `CCNC(=O)Nc1nc2cc(-c3cccnc3)cc(/C(=N\O)C3CCCC3)c2[nH]1` [Compound I-42], the MIC in assay [1] and in assay [2] was no more than 0.5 µg/mL throughout. Turning to `CCNC(=O)Nc1nc2cc(-c3cccnc3)cc(/C(=N/O)C3CCCC3)c2[nH]1` [Compound I-43], the MIC in assay [1] and in assay [2] was no more than 0.5 µg/mL each time.

With `CCOC(=O)Nc1nc2cc(-c3cccnc3)cc(C(=O)CC)c2[nH]1` [Compound I-44, (7-Propionyl-5-pyridin-3-yl-1H-benzoimidazol-2-yl)-carbamic acid ethyl ester], the MIC in assay [1] was greater than 1 µg/mL; in assay [2] it was no more than 0.5 µg/mL.
